From patent US9409952B2, “Peptide-compound cyclization method” (Chugai Seiyaku Kabushiki Kaisha, priority 2011, dated 2016)
Positions of bridges follow the written chain, without caps; N, C: chain ends. Non-standard residues stand in square brackets, D forms with d. Residues, ends and D or L forms follow the SMILES beside them. *: point of attachment. NEtPhe = CCN[C@@H](Cc1ccccc1)C(=O)O; NMeF = CN[C@@H](Cc1ccccc1)C(=O)O; NMeI = CC[C@H](C)[C@H](NC)C(=O)O; AllylGly = C=CC[C@H](N)C(=O)O; NMeL = CN[C@@H](CC(C)C)C(=O)O; Ala(CN) = N#CC[C@H](N)C(=O)O; NMeV = CN[C@H](C(=O)O)C(C)C; NMeA = CN[C@@H](C)C(=O)O; Piperidide = C1CCN(*)CC1; dNMeA = CN[C@H](C)C(=O)O; NPrGly = CCCNCC(=O)O; Sar = CNCC(=O)O; tBu = CC(C)(C)*

Assay: Metabolic stability in human hepatic microsome
Format: in vitro ADME
Details: human, microsomes, pH 7.4, CL NADPH(+)

`CCN1C(=O)[C@H](Cc2ccccc2)N(C)C(=O)CN(C)C(=O)[C@H]([C@@H](C)O)NC(=O)[C@H](C)N(C)C(=O)C[C@@H](C(=O)N2CCCCC2)NC(=O)[C@H](C(C)C)N(C)C(=O)[C@H](C)NC(=O)[C@H](CC(C)C)N(C)C(=O)[C@@H]2CCCN2C(=O)[C@H](CC(C)C)N(C)C(=O)[C@@H]1Cc1ccccc1` [DP-632] ([NMeA]T[Sar][NMeF][NEtPhe][NMeL]P[NMeL]A[NMeV]D-Piperidide; lactam N-11) showed a microsomal CLint at 1 uM of 41 µL/min/mg.

Same assay, conditions: microsomes, pH 7.4; human hepatic microsome, NADPH(+); read-out: CL NADPH(+)

First: C=CC[C@@H]1NC(=O)[C@H](Cc2ccccc2)N(C)C(=O)[C@H]([C@@H](C)O)NC(=O)[C@H](CC(C)C)N(C)C(=O)[C@H](Cc2ccccc2)NC(=O)[C@H](C)NC(=O)C[C@@H](C(=O)N(C)[C@@H](Cc2ccccc2)C(=O)N[C@@H](C)C(=O)N2CCCCC2)NC(=O)[C@H](CC(C)C)NC(=O)[C@H](CC(C)C)N(C)C(=O)[C@H](C)N(C)C1=O [DP-612] (AF[NMeL]T[NMeF][AllylGly][NMeA][NMeL]LD[NMeF]A-Piperidide; lactam N-10)
Second: CC(C)C[C@H]1C(=O)N(C)[C@@H](CC(C)C)C(=O)N[C@@H](C)C(=O)N[C@H](C(=O)N(C)[C@@H](Cc2ccccc2)C(=O)N[C@@H](C)C(=O)N2CCCCC2)CC(=O)N[C@@H](C)C(=O)N[C@@H](Cc2ccccc2)C(=O)N(C)[C@@H](CC(C)C)C(=O)N[C@@H](CC#N)C(=O)N(C)[C@@H](Cc2ccccc2)C(=O)N[C@@H](C)C(=O)N1C [DP-613] (AF[NMeL][Ala(CN)][NMeF]A[NMeL][NMeL]AD[NMeF]A-Piperidide; lactam N-10)
The microsomal CLint at 1 uM of the first is 4.2-fold higher: 155 µL/min/mg for the first, 37 µL/min/mg for the second.

Compared with `CC(C)C[C@@H]1NC(=O)C[C@@H](C(=O)N2CCCCC2)NC(=O)[C@H]([C@@H](C)O)NC(=O)[C@H](C(C)C)N(C)C(=O)CN(C)C(=O)[C@H](CC(C)C)N(C)C(=O)[C@H](Cc2ccccc2)NC(=O)[C@H](Cc2ccccc2)N(C)C(=O)[C@@H](C(C)C)NC(=O)[C@H](CC(C)C)N(C)C(=O)[C@H](C)N(C)C1=O` [DP-615] (L[NMeA][NMeL][dV][NMeF]F[NMeL][Sar][NMeV]TD-Piperidide; lactam N-11), `CC(C)C[C@@H]1NC(=O)[C@H](CC(C)C)N(C)C(=O)[C@H](C)N(C)C(=O)[C@H](Cc2ccccc2)NC(=O)C[C@@H](C(=O)N2CCCCC2)NC(=O)[C@H]([C@@H](C)O)NC(=O)[C@H](C(C)C)N(C)C(=O)CN(C)C(=O)[C@H](CC(C)C)N(C)C(=O)[C@@H](C(C)C)NC(=O)[C@H](Cc2ccccc2)N(C)C1=O` [DP-616] (F[NMeA][NMeL]L[NMeF][dV][NMeL][Sar][NMeV]TD-Piperidide; lactam N-11) is 1.6-fold higher in microsomal CLint at 1 uM: 42 µL/min/mg for the first, 69 µL/min/mg for the second.

Compared with `CC(C)C[C@@H]1NC(=O)[C@H](CC(C)C)N(C)C(=O)[C@H](C)N(C)C(=O)[C@@H](C(C)C)NC(=O)C[C@@H](C(=O)N2CCCCC2)NC(=O)[C@H]([C@@H](C)O)NC(=O)[C@H](C)N(C)C(=O)CN(C)C(=O)[C@H](CC(C)C)N(C)C(=O)[C@H](Cc2c[nH]c3ccccc23)NC(=O)[C@H](Cc2ccccc2)N(C)C1=O` [DP-622] ([dV][NMeA][NMeL]L[NMeF]W[NMeL][Sar][NMeA]TD-Piperidide; lactam N-11), `CC(C)C[C@H]1C(=O)N(C)CC(=O)N(C)[C@@H](C)C(=O)N[C@@H]([C@@H](C)O)C(=O)N[C@H](C(=O)N2CCCCC2)CC(=O)N[C@H](C(C)C)C(=O)N(C)[C@@H](C)C(=O)N(C)[C@@H](CC(C)C)C(=O)N[C@@H](Cc2c[nH]c3ccccc23)C(=O)N(C)[C@@H](Cc2ccccc2)C(=O)N[C@@H](Cc2ccccc2)C(=O)N1C` [DP-623] ([dV][NMeA][NMeL]W[NMeF]F[NMeL][Sar][NMeA]TD-Piperidide; lactam N-11) is 2.2-fold lower in microsomal CLint at 1 uM: 36 µL/min/mg for the first, 16 µL/min/mg for the second.

`C=CC[C@@H]1NC(=O)[C@H](CC(C)C)N(C)C(=O)[C@H](C)N(C)C(=O)[C@@H](C(C)C)NC(=O)C[C@@H](C(=O)N2CCCCC2)NC(=O)[C@H]([C@@H](C)O)NC(=O)[C@H](CC(C)C)N(C)C(=O)[C@H](C)N(C)C(=O)[C@H](CC(C)C)N(C)C(=O)[C@H](Cc2ccccc2)NC(=O)[C@H](Cc2ccccc2)N(C)C1=O` [DP-628] ([dV][NMeA][NMeL][AllylGly][NMeF]F[NMeL][NMeA][NMeL]TD-Piperidide; lactam N-11) and `CC(C)C[C@@H]1NC(=O)[C@H](CC(C)C)N(C)C(=O)[C@H](C)N(C)C(=O)[C@@H](C(C)C)NC(=O)C[C@@H](C(=O)N2CCCCC2)NC(=O)[C@H]([C@@H](C)O)NC(=O)[C@H](Cc2ccccc2)N(C)C(=O)[C@H](C)N(C)C(=O)[C@H](CC(C)C)N(C)C(=O)[C@H](CC#N)NC(=O)[C@H](Cc2ccccc2)N(C)C1=O` [DP-630] ([dV][NMeA][NMeL]L[NMeF][Ala(CN)][NMeL][NMeA][NMeF]TD-Piperidide; lactam N-11) are within 1.5-fold of each other in microsomal CLint at 1 uM: 36 µL/min/mg for the first, 34 µL/min/mg for the second.

Going from `CC(C)C[C@H]1C(=O)N(C)CC(=O)N(C)[C@@H](C)C(=O)N[C@@H]([C@@H](C)O)C(=O)N[C@H](C(=O)N2CCCCC2)CC(=O)N[C@H](C(C)C)C(=O)N(C)[C@@H](C)C(=O)N(C)[C@@H](CC(C)C)C(=O)N[C@@H](CC#N)C(=O)N(C)[C@@H](Cc2ccccc2)C(=O)N[C@@H](Cc2ccccc2)C(=O)N1C` [DP-629] ([dV][NMeA][NMeL][Ala(CN)][NMeF]F[NMeL][Sar][NMeA]TD-Piperidide; lactam N-11) to `CCN1C(=O)[C@H](CC(C)C)N(C)C(=O)[C@H](CC(C)C)NC(=O)[C@@H](C)N(C)C(=O)C[C@@H](C(=O)N2CCCCC2)NC(=O)[C@H](CC(C)C)N(C)C(=O)CN(C)C(=O)[C@H]([C@@H](C)O)NC(=O)[C@H](CC(C)C)N(C)C(=O)[C@H](Cc2ccccc2)N(C)C(=O)[C@H](C)NC(=O)[C@@H]1Cc1ccccc1` [DP-636] ([dNMeA]L[NMeL][NEtPhe]A[NMeF][NMeL]T[Sar][NMeL]D-Piperidide; lactam N-11), the microsomal CLint at 1 uM rises from 16 µL/min/mg to 73 µL/min/mg (4.6-fold).

`CC[C@H](C)[C@H]1C(=O)N[C@@H]([C@@H](C)O)C(=O)N(C)CC(=O)N(C)[C@@H](CC(C)C)C(=O)N[C@H](C(=O)N2CCCCC2)CC(=O)N(C)[C@H](C)C(=O)N[C@@H](CC(C)C)C(=O)N(C)[C@@H](CC(C)C)C(=O)N(CC)[C@@H](Cc2ccccc2)C(=O)N[C@@H](C)C(=O)N(C)[C@@H](Cc2ccccc2)C(=O)N1C` [DP-633] ([dNMeA]L[NMeL][NEtPhe]A[NMeF][NMeI]T[Sar][NMeL]D-Piperidide; lactam N-11) and `CCCN1CC(=O)N(C)[C@@H](CC(C)C)C(=O)N[C@H](C(=O)N2CCCCC2)CC(=O)N(C)[C@H](C)C(=O)N[C@@H](CC(C)C)C(=O)N(C)[C@@H](CC(C)C)C(=O)N(C)[C@@H](Cc2ccccc2)C(=O)N[C@@H](C)C(=O)N(C)[C@@H](Cc2ccccc2)C(=O)N(C)[C@@H]([C@@H](C)CC)C(=O)N[C@@H]([C@@H](C)O)C1=O` [DP-635] ([dNMeA]L[NMeL][NMeF]A[NMeF][NMeI]T[NPrGly][NMeL]D-Piperidide; lactam N-11) are within 1.5-fold of each other in microsomal CLint at 1 uM: 98 µL/min/mg for the first, 112 µL/min/mg for the second.

`CCCN1CC(=O)N[C@@H](COC(C)(C)C)C(=O)N(C)CC(=O)N(C)[C@@H](CC(C)C)C(=O)N[C@@H]([C@@H](C)O)C(=O)N(C)[C@@H](Cc2ccccc2)C(=O)N(C)[C@@H](CC(C)C)C(=O)N(C)[C@@H]([C@@H](C)CC)C(=O)N(C)[C@@H](C)C(=O)N[C@H](C(=O)N2CCCCC2)CC1=O` [DP-634] ([NPrGly]S(tBu)[Sar][NMeL]T[NMeF][NMeL][NMeI][NMeA]D-Piperidide; lactam N-10) gave a microsomal CLint at 1 uM of 32 µL/min/mg.
